Data reported in patent US8334248B2, “Aqueous solution of olanexidine, method of preparing the aqueous solution, and disinfectant” (Otsuka Pharmaceutical Co., Ltd., priority 2003, dated 2012).

Assay: Solubility in water
Format: physicochemical
Excerpt: Olanexidine has very poor solubility in water, and hitherto known salts of olanexidine are also poorly soluble in water. […] Consequently, sufficient bactericidal activity cannot be expected of an aqueous solution merely having olanexidine dissolved therein, and moreover, depending on the conditions the olanexidine may precipitate out.

## CCCCCCCCN=C(N)NC(N)=NCc1ccc(Cl)c(Cl)c1.Cl [olanexidine hydrochloride]
At 0° C.
  solubility in water: less than 0.05 % (W/V)

## CCCCCCCCNC(=N)NC(=N)NCc1ccc(Cl)c(Cl)c1 [free olanexidine, 1-(3,4-dichlorobenzyl)-5-octylbiguanide]
Compared with less than 0.05% (W/V) of the hydrochloride
  solubility in water relative to olanexidine hydrochloride: a further order of magnitude less than this
